1 compound from US10701931B2, “Mosquito activating formulations” (Commonwealth Scientific and Industrial Research Organisation, priority 2015, dated 2020) can be followed below.

Values joined by “and” are separate entries in the source; they are usually repeats but may differ in a detail not shown here. Equal entries are not always repeated.

One experiment concerns Anopheles stephensi. Nature of the experiment: Y-tube olfactometer, measurement of attraction against CO2/1-octen-3-ol positive control. The experiment is classed as in vivo. Here is the method:
Attraction to these components was compared to a standard “positive control” known to elicit a directional response in An. stephensi mosquitoes placed in an olfactometer. The standard used as a positive control is a mix of compressed air, 5% CO2 and an octenol source. Unpaired t-test was used to test for the differences in means for all data sets presented.
The MR4 strain of An. stephensi (New Delhi, India) was maintained at 27° C., 70% RH, 12:12 L:D and 30 min dawn/dusk periods). 4 to 7 day old female mosquitoes, that had never received a blood meal, were used in experiments. Mosquitoes were maintained on 10% sugar solution ad libitum but starved for 12 hr prior to testing.
The Y tube olfactometer is made entirely of glass and consists of a release chamber, the Y tube itself, and a trap chamber attached to each arm (FIG. 1). Each trap chamber is divided in two by a fine glass filter. On the far side of those filters, the trap chambers can connect to charcoal filters or to gas bags or gas cylinders. Air is pulled through the olfactometer by connecting the release chamber to a vacuum tap which vents the contents of the tube. Standard air flow (0.4 L/minute) is maintained using a 0.1-1.2 LPM flow meter (John Morris Pty, LTD). The air volume of the Y-tube is approximately 1 litre and is therefore replaced every 2.5 minutes.
1 μl 10^−4% 1-octen-3-ol in mineral oil (Sigma Aldrich) was spotted on 1 cm^2 Whatman filter paper.
5% CO2 by volume was added to a 10 L FlexFilm gasbag (SKC Inc.) of compressed air.
When a CO2/1-octen-3-ol mix was required, 5% CO2 was delivered by connecting the gas bag to the requisite Y tube arm and placing the 1-octen-3-ol treated filter paper between the gasbag inlet and the glass filter of the trap chamber.
All experiments were run under PC2 quarantine conditions, at 27° C., 70% RH, under infrared light. Observers were always in the same position during the tests, at the trap chamber end of the olfactometer, between the 2 arms of the Y tube.
Using an aspirator, 25-30 starved female An. stephensi were introduced into the release chamber (FIG. 1).
After each test, mosquitoes were carefully aspirated from the apparatus by disconnecting constituent parts. The apparatus was flushed with clean air (charcoal filters only) for 5 minutes before the next batch of stimuli was introduced.
A total of 10 replicates (different batches of mosquitoes) were run for each stimuli assessment. Treatment and control arms were alternated between replicates. After completion of 10 replicates, the apparatus was rinsed in acetone and allowed to dry overnight.
Once the range of doses that “activated” mosquitoes had been established, the capacity of those concentrations to initiate a directional response was tested. In this instance, experiments were conducted in comparison to a positive control of CO2/1-octen-3-ol [[…]]. […] A positive control was used to assess whether test stimuli were at least as attractive as a standard directional stimulus.

The subject of another experiment is Total mosquito. Nature of the experiment: Field trial with CDC light traps, total mosquito catch. Format: in vivo. To be noted: CDC light trap, one night, treatment per Table 3. Here is the method:
Field trials based on an imperfect Latin square design compared the attraction of An. farauti to MTPE with and without CO2. Treatments included CO2 alone, CO2 in combination with MTPE lure, or MTPE lure alone. Centres for Disease Control and Prevention (CDC) light traps were used to deliver MTPE lures and/or CO2. MTPE lures consisted of 500 μl of MTPE in mineral oil, 10-100,000 ppm spread on filter paper. MTPE/mineral oil mixtures were spread on filter paper, rolled into a tight wick, and inserted into a specimen tube. Specimen tubes where then wired to a CDC trap. CO2 was delivered using 1 kg dry ice, hung above a CDC light trap, as per standard sampling protocols. MTPE+/−CO2 combinations were randomised between 4 trap positions over three nights. Traps were placed at least 50 m apart to manage interference and were set between 5 pm and 7 am each night. Trap catches were subsequently returned to the laboratory, counted and identified as “Anopheles farauti s.l” or “other”.
As CO2 is a known mosquito attractant, all catches were compared to CO2 alone.

Experiment [1] deals with Anopheles farauti antennae. The experiment is described as follows: Electroantennogram (EAG), non bloodfed females. To be noted: chemicals at 1/10 concentrations. Here is the method: (§1) In order to assess Y-tube olfactometry experiments and field trials using an independent technique and to investigate the physiological basis of the observed activation and attraction behaviour, electroanntennogram (EAG) and electropalpogram (EPG) studies were performed on A. stephensi female mosquitoes. EAG studies were also performed on Anopheles farauti, Culex annulirostris and Aedes aegypti female mosquitoes.
(§2) Five to eight days Anopheles stephensi, two to fourteen days old Culex annulirostris and Aedes aegypti as well as four days old Anopheles faraulti non-blooded females, fed on 10% sucrose ad-libitum and then starved for >12 hours, were used. Mosquito head was excised and placed on the reference electrode coated with electrode gel (Parker Laboratories, Orange, N.J.). The distal end of the antennae or palp (<0.5 mm), cut to ensure a good electrical contact, were carefully placed on the recording electrode (Syntech, Germany). Signals were fed to a 10× amplifier and processed with IDAC 4 and PC-based interface and EAG software package (Syntech, Germany).
(§3) Thus 1-octen-3-ol was used in the EAG analysis as a positive control with thio compounds, (E and Z)-1-methylthio-1-propene, 3-methyl-thio-1-propanol, ally methyl sulphide, and carbon dioxide (5%) and mineral oil (negative control). Pure chemicals were diluted in mineral oil to a 10 times v/v stock solution, from which decadal dilutions were made. A 10 μl aliquot of each solution was applied to a filter paper strip (1×3.5 cm; Whatman No. 4, Fisher Scientific) and the solvent was evaporated under a fume hood before inserting the paper strip into 5 ml disposable plastic syringe (Terumo syringes). A 500 ms pulse (5 ml/s) was delivered by stimulus controller CS-55 (Syntech, Germany) to deliver chemical stimulants to a humidified continuous air flow (10 ml/s) over the electrophysiolgical preparation. The chemicals were tested randomly and applied with 0.5-1 min intervals between stimulations.
(§4) Initial screening was performed using a 10 times dilution (1/10, v/v) source dose solution. Then 1-methylthio-1-propene and 1-octen-3-ol were selected for further dose-response study. A minimum of five mosquitoes were tested for each compound to calculate the average EAG amplitude±standard error (SE).

In experiment [2] the test system is Anopheles stephensi antennae. Nature of the experiment: Electroantennogram (EAG), non bloodfed females. Here is the method:
as §1, §2, §3, §4

For experiment [3], the system named is Anopheles stephensi maxillary palps. The experiment is described as follows: Electropalpogram (EPG), non bloodfed females. How it is done: as §1, §2, §3, §4

Turning to `CC=CSC` [MTPE, 1-methylthio-1-propene], the “Attractiveness relative to 1-octen-3-ol/CO2” value in the experiment with Anopheles stephensi (at 0.0001%) is “more attractive”. Further, the “Attraction (against CO2 + 1-octen-3-ol)” value in the experiment on Anopheles stephensi (dilution 0.0001 (10^-4)%, An. stephensi females) is “Yes”. Also, the “Total mosquito catch numbers” value in the experiment on Total mosquito (100 ppm MTPE lure alone) is 189; in the experiment on Total mosquito (CO2 + 1000 ppm MTPE lure), 203 and 264 and 358. Also, the “EAG response, comparison among tested chemicals” value in experiment [1] and in experiment [2] (chemicals at 1/10 concentrations) was “strongest response” throughout. The “EAG response, dose dependence” value in experiment [2] (decadal dilutions, n=7) is on record as “dose dependant”. In addition, the “EPG response, comparison among tested chemicals” value in experiment [3] (chemicals at 1/10 concentrations, CO2 5%) is reported as “strongest response”. Also, the “EPG response compared to mineral oil control” value in experiment [3] (chemicals at 1/10 concentrations, CO2 5%, n=7) is listed as “significant responses”. In addition, the “EPG response, dose dependence” value in experiment [3] (decadal dilutions, n=6) is “dose dependant”.
